Measurements taken from the supplement of paper PMC10307832.

Assays:
Experiment in all cases: relative viability (nuclei count vs DMSO), 5 days (fraction); higher = more cells survive
[1] = compound: COc1ncc(-c2ccc3nccc(-c4ccnnc4)c3c2)cc1NS(=O)(=O)c1ccc(F)cc1F [Omipalisib]
Summary of the method: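 Lung cancer cell lines were seeded into 1536-well plates, kept overnight at 37 °C and pinned with five library-drug doses (not always all listed) spaced by √10. After 5 days, nuclei were Hoechst-stained, imaged at 4× and counted with MetaXpress. Viability is treated-well nuclei over vehicle-well nuclei, taken as a median across plates. Plates needed control CV below 25% and at least one doubling.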

[2] = compound: COc1ncc(-c2ccc3nccc(-c4ccnnc4)c3c2)cc1NS(=O)(=O)c1ccc(F)cc1F [Omipalisib] + CC(=O)c1c(C)c2cnc(Nc3ccc(N4CCNCC4)cn3)nc2n(C2CCCC2)c1=O [Palbociclib] (partner 0.5 µM)
Summary of the method: (§1)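 Lung cancer cell lines in 1536-well plates got either a single drug or a fixed anchor-drug dose together with five library-drug doses (not always all listed) in √10 steps, by pin tool, on the day after seeding. Nuclei were counted after 5 days, and relative viability is the treated-to-vehicle ratio of nuclei counts. Values are medians of duplicate plates.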

[3] = compound: COc1ncc(-c2ccc3nccc(-c4ccnnc4)c3c2)cc1NS(=O)(=O)c1ccc(F)cc1F [Omipalisib] + COc1cc2c(Oc3ccc(NC(=O)C4(C(=O)Nc5ccc(F)cc5)CC4)cc3F)ccnc2cc1OCCCN1CCOCC1 [Foretinib] (partner 0.25 µM)
Summary of the method: as §1

[4] = compound: COc1ncc(-c2ccc3nccc(-c4ccnnc4)c3c2)cc1NS(=O)(=O)c1ccc(F)cc1F [Omipalisib] + C[C@@H](Oc1cc(-c2cnn(C3CCNCC3)c2)cnc1N)c1c(Cl)ccc(F)c1Cl [Crizotinib] (partner 1 µM)
Summary of the method: as §1

[5] = compound: COc1ncc(-c2ccc3nccc(-c4ccnnc4)c3c2)cc1NS(=O)(=O)c1ccc(F)cc1F [Omipalisib] + Cc1cc(Nc2cc(N3CCN(C)CC3)nc(Sc3ccc(NC(=O)C4CC4)cc3)n2)n[nH]1 [Tozasertib] (partner 0.1 µM)
Summary of the method: as §1

[6] = compound: COc1ncc(-c2ccc3nccc(-c4ccnnc4)c3c2)cc1NS(=O)(=O)c1ccc(F)cc1F [Omipalisib] + CC(=O)Nc1cccc(-n2c(=O)n(C3CC3)c(=O)c3c(Nc4ccc(I)cc4F)n(C)c(=O)c(C)c32)c1 [Trametinib] (partner 0.02 µM)
Summary of the method: as §1

## ABC-1
[1]; 0.0003 µM
  relative viability: 1.02
[1]; 0.003 µM
  relative viability: 0.705
[1]; 0.03 µM
  relative viability: 0.538
[2]; first compound 0.0003 µM
  relative viability: 0.603
[2]; first compound 0.003 µM
  relative viability: 0.482
[2]; first compound 0.03 µM
  relative viability: 0.364
[3]; first compound 0.0003 µM
  relative viability: 1.05
[3]; first compound 0.003 µM
  relative viability: 0.824
[3]; first compound 0.03 µM
  relative viability: 0.561
[4]; first compound 0.0003 µM
  relative viability: 0.811
[4]; first compound 0.003 µM
  relative viability: 0.899
[4]; first compound 0.03 µM
  relative viability: 0.49
[5]; first compound 0.0003 µM
  relative viability: 0.161
[5]; first compound 0.003 µM
  relative viability: 0.189
[5]; first compound 0.03 µM
  relative viability: 0.213

## NCI-H3122
[1]; 0.0003 µM
  relative viability: 0.971
[1]; 0.003 µM
  relative viability: 0.956
[1]; 0.03 µM
  relative viability: 0.538
[6]; first compound 0.0003 µM
  relative viability: 0.185
[6]; first compound 0.003 µM
  relative viability: 0.137
[6]; first compound 0.03 µM
  relative viability: 0.119
[2]; first compound 0.0003 µM
  relative viability: 0.168
[2]; first compound 0.003 µM
  relative viability: 0.153
[2]; first compound 0.03 µM
  relative viability: 0.144
[3]; first compound 0.0003 µM
  relative viability: 0.942
[3]; first compound 0.003 µM
  relative viability: 0.802
[3]; first compound 0.03 µM
  relative viability: 0.522
[4]; first compound 0.0003 µM
  relative viability: 0.258
[4]; first compound 0.003 µM
  relative viability: 0.231
[4]; first compound 0.03 µM
  relative viability: 0.159
[5]; first compound 0.0003 µM
  relative viability: 0.348
[5]; first compound 0.003 µM
  relative viability: 0.26
[5]; first compound 0.03 µM
  relative viability: 0.172

## EPLC-272H
[1]; 0.0003 µM
  relative viability: 0.958
[1]; 0.003 µM
  relative viability: 0.661
[1]; 0.03 µM
  relative viability: 0.387
[6]; first compound 0.0003 µM
  relative viability: 0.275
[6]; first compound 0.003 µM
  relative viability: 0.256
[6]; first compound 0.03 µM
  relative viability: 0.14
[2]; first compound 0.0003 µM
  relative viability: 0.311
[2]; first compound 0.003 µM
  relative viability: 0.306
[2]; first compound 0.03 µM
  relative viability: 0.225
[3]; first compound 0.0003 µM
  relative viability: 0.574
[3]; first compound 0.003 µM
  relative viability: 0.388
[3]; first compound 0.03 µM
  relative viability: 0.196
[4]; first compound 0.0003 µM
  relative viability: 1.08
[4]; first compound 0.003 µM
  relative viability: 0.794
[4]; first compound 0.03 µM
  relative viability: 0.325
[5]; first compound 0.0003 µM
  relative viability: 0.254
[5]; first compound 0.003 µM
  relative viability: 0.186
[5]; first compound 0.03 µM
  relative viability: 0.165

## NCI-H1793
[1]; 0.0003 µM
  relative viability: 0.74
[1]; 0.003 µM
  relative viability: 0.514
[1]; 0.03 µM
  relative viability: 0.317
[6]; first compound 0.0003 µM
  relative viability: 0.375
[6]; first compound 0.003 µM
  relative viability: 0.334
[6]; first compound 0.03 µM
  relative viability: 0.194
[2]; first compound 0.0003 µM
  relative viability: 0.243
[2]; first compound 0.003 µM
  relative viability: 0.215
[2]; first compound 0.03 µM
  relative viability: 0.15
[3]; first compound 0.0003 µM
  relative viability: 0.559
[3]; first compound 0.003 µM
  relative viability: 0.399
[3]; first compound 0.03 µM
  relative viability: 0.244
[5]; first compound 0.0003 µM
  relative viability: 0.287
[5]; first compound 0.003 µM
  relative viability: 0.209
[5]; first compound 0.03 µM
  relative viability: 0.113

## COR-L 105
[1]; 0.0003 µM
  relative viability: 0.937
[1]; 0.003 µM
  relative viability: 0.976
[1]; 0.03 µM
  relative viability: 0.535
[6]; first compound 0.0003 µM
  relative viability: 0.469
[6]; first compound 0.003 µM
  relative viability: 0.423
[6]; first compound 0.03 µM
  relative viability: 0.414
[2]; first compound 0.0003 µM
  relative viability: 0.406
[2]; first compound 0.003 µM
  relative viability: 0.432
[2]; first compound 0.03 µM
  relative viability: 0.415
[3]; first compound 0.0003 µM
  relative viability: 1.17
[3]; first compound 0.003 µM
  relative viability: 1.01
[3]; first compound 0.03 µM
  relative viability: 0.896
[4]; first compound 0.0003 µM
  relative viability: 0.799
[4]; first compound 0.003 µM
  relative viability: 0.779
[4]; first compound 0.03 µM
  relative viability: 0.558
[5]; first compound 0.0003 µM
  relative viability: 0.356
[5]; first compound 0.003 µM
  relative viability: 0.359
[5]; first compound 0.03 µM
  relative viability: 0.316

## LK-2
[1]; 0.0003 µM
  relative viability: 0.767
[1]; 0.003 µM
  relative viability: 0.435
[1]; 0.03 µM
  relative viability: 0.345
[6]; first compound 0.0003 µM
  relative viability: 0.595
[6]; first compound 0.003 µM
  relative viability: 0.4
[6]; first compound 0.03 µM
  relative viability: 0.201
[2]; first compound 0.0003 µM
  relative viability: 0.421
[2]; first compound 0.003 µM
  relative viability: 0.203
[2]; first compound 0.03 µM
  relative viability: 0.225
[3]; first compound 0.0003 µM
  relative viability: 0.832
[3]; first compound 0.003 µM
  relative viability: 0.553
[3]; first compound 0.03 µM
  relative viability: 0.484
[4]; first compound 0.0003 µM
  relative viability: 0.241
[4]; first compound 0.003 µM
  relative viability: 0.234
[4]; first compound 0.03 µM
  relative viability: 0.247
[5]; first compound 0.0003 µM
  relative viability: 0.17
[5]; first compound 0.003 µM
  relative viability: 0.166
[5]; first compound 0.03 µM
  relative viability: 0.183

## NCI-H1792
[1]; 0.0003 µM
  relative viability: 0.91
[1]; 0.003 µM
  relative viability: 0.495
[1]; 0.03 µM
  relative viability: 0.213
[6]; first compound 0.0003 µM
  relative viability: 0.42
[6]; first compound 0.003 µM
  relative viability: 0.169
[6]; first compound 0.03 µM
  relative viability: 0.116
[2]; first compound 0.0003 µM
  relative viability: 0.636
[2]; first compound 0.003 µM
  relative viability: 0.424
[2]; first compound 0.03 µM
  relative viability: 0.27
[4]; first compound 0.0003 µM
  relative viability: 0.971
[4]; first compound 0.003 µM
  relative viability: 0.848
[4]; first compound 0.03 µM
  relative viability: 0.269

## NCI-H2347
[1]; 0.0003 µM
  relative viability: 0.972
[1]; 0.003 µM
  relative viability: 0.978
[1]; 0.03 µM
  relative viability: 0.579
[6]; first compound 0.0003 µM
  relative viability: 0.245
[6]; first compound 0.003 µM
  relative viability: 0.252
[6]; first compound 0.03 µM
  relative viability: 0.215
[2]; first compound 0.0003 µM
  relative viability: 0.393
[2]; first compound 0.003 µM
  relative viability: 0.432
[2]; first compound 0.03 µM
  relative viability: 0.4
[3]; first compound 0.0003 µM
  relative viability: 0.905
[3]; first compound 0.003 µM
  relative viability: 0.699
[3]; first compound 0.03 µM
  relative viability: 0.454
[4]; first compound 0.0003 µM
  relative viability: 0.827
[4]; first compound 0.003 µM
  relative viability: 0.685
[4]; first compound 0.03 µM
  relative viability: 0.293
[5]; first compound 0.0003 µM
  relative viability: 0.66
[5]; first compound 0.003 µM
  relative viability: 0.378
[5]; first compound 0.03 µM
  relative viability: 0.211

## LOU-NH91
[1]; 0.0003 µM
  relative viability: 0.999
[1]; 0.003 µM
  relative viability: 0.784
[1]; 0.03 µM
  relative viability: 0.65
[6]; first compound 0.0003 µM
  relative viability: 0.788
[6]; first compound 0.003 µM
  relative viability: 0.666
[6]; first compound 0.03 µM
  relative viability: 0.593
[2]; first compound 0.0003 µM
  relative viability: 0.586
[2]; first compound 0.003 µM
  relative viability: 0.536
[2]; first compound 0.03 µM
  relative viability: 0.52
[3]; first compound 0.0003 µM
  relative viability: 0.901
[3]; first compound 0.003 µM
  relative viability: 0.838
[3]; first compound 0.03 µM
  relative viability: 0.564
[4]; first compound 0.0003 µM
  relative viability: 0.737
[4]; first compound 0.003 µM
  relative viability: 0.65
[4]; first compound 0.03 µM
  relative viability: 0.504
[5]; first compound 0.0003 µM
  relative viability: 0.706
[5]; first compound 0.003 µM
  relative viability: 0.621
[5]; first compound 0.03 µM
  relative viability: 0.441
